# Source: the NIST ThermoML archive (doi:10.1021/je100104v)
# ± gives the expanded uncertainty stated by the source.
# Tests used:
# [1] = xn = mol fraction of the nth substance listed; details: Liquid; for viscosity / electrical conductivity: 101.3 kPa; for electrical conductivity: Eutech Cyberscan Con 11; for mass density: 101 kPa
# [2] = refractive index (Na D-line) (dimensionless); xn = mol fraction of the nth substance listed; details: 101.3 kPa, Liquid, Standard Abbe refractometry
smiles,measurement,setting,value
[Cl-].c1ccc(C[P+](c2ccccc2)(c2ccccc2)c2ccccc2)cc1 [benzyltriphenylphosphonium chloride] + OCC(O)CO,viscosity,"[1]; 328.15 K, x1 = 0.167",553.7 mPa·s
same,electrical conductivity,"[1]; 338.15 K, x1 = 0.167",0.00187 S/m
same,viscosity,"[1]; 338.15 K, x1 = 0.167",339.3 ± 140 mPa·s
same,electrical conductivity,"[1]; 348.15 K, x1 = 0.167",0.00167 S/m
same,viscosity,"[1]; 348.15 K, x1 = 0.167",118.6 ± 24 mPa·s
same,electrical conductivity,"[1]; 358.15 K, x1 = 0.167",0.00151 S/m
same,viscosity,"[1]; 358.15 K, x1 = 0.167",75.5 ± 9.8 mPa·s
same,electrical conductivity,"[1]; 368.15 K, x1 = 0.167",0.00139 S/m
same,viscosity,"[1]; 368.15 K, x1 = 0.167",38.7 ± 4.3 mPa·s
same,refractive index,"[2]; 328.15 K, x2 = 0.167",1.5502 ± 0.0064
same,refractive index,"[2]; 338.15 K, x2 = 0.167",1.5168 ± 0.0064
C[P+](c1ccccc1)(c1ccccc1)c1ccccc1.[Br-] [methyltriphenylphosphonium bromide] + OCC(O)CO,electrical conductivity,"[1]; 278.1 K, x1 = 0.3636",0.00375 S/m
same,electrical conductivity,"[1]; 288.15 K, x1 = 0.3636",0.00826 ± 0.014 S/m
same,mass density,"[1]; 298.15 K, x1 = 0.3636",1289.9 ± 5 kg/m3
same,electrical conductivity,"[1]; 298.15 K, x1 = 0.3636",0.0165 ± 0.014 S/m
same,mass density,"[1]; 308.15 K, x1 = 0.3636",1283 ± 5 kg/m3
same,electrical conductivity,"[1]; 308.15 K, x1 = 0.3636",0.0315 ± 0.014 S/m
same,mass density,"[1]; 318.15 K, x1 = 0.3636",1275.9 ± 4.8 kg/m3
same,electrical conductivity,"[1]; 318.15 K, x1 = 0.3636",0.0555 ± 0.014 S/m
same,viscosity,"[1]; 318.15 K, x1 = 0.3636",887.1 mPa·s
same,mass density,"[1]; 328.15 K, x1 = 0.3636",1268.8 ± 4.7 kg/m3
same,electrical conductivity,"[1]; 328.15 K, x1 = 0.3636",0.0901 ± 0.014 S/m
same,viscosity,"[1]; 328.15 K, x1 = 0.3636",414.9 ± 190 mPa·s
same,mass density,"[1]; 338.15 K, x1 = 0.3636",1261.9 ± 4.6 kg/m3
same,electrical conductivity,"[1]; 338.15 K, x1 = 0.3636",0.127 ± 0.014 S/m
same,viscosity,"[1]; 338.15 K, x1 = 0.3636",205.7 ± 63 mPa·s
same,mass density,"[1]; 348.15 K, x1 = 0.3636",1255 ± 5 kg/m3
same,electrical conductivity,"[1]; 348.15 K, x1 = 0.3636",0.182 ± 0.014 S/m
same,viscosity,"[1]; 348.15 K, x1 = 0.3636",104.8 ± 19 mPa·s
same,mass density,"[1]; 358.15 K, x1 = 0.3636",1248 ± 4 kg/m3
same,electrical conductivity,"[1]; 358.15 K, x1 = 0.3636",0.242 ± 0.014 S/m
same,viscosity,"[1]; 358.15 K, x1 = 0.3636",77.4 ± 10 mPa·s
same,electrical conductivity,"[1]; 368.15 K, x1 = 0.3636",0.315 ± 0.014 S/m
same,viscosity,"[1]; 368.15 K, x1 = 0.3636",36.9 ± 4.2 mPa·s
same,refractive index,"[2]; 288.15 K, x2 = 0.3636",1.5708 ± 0.0054
same,refractive index,"[2]; 298.15 K, x2 = 0.3636",1.5666 ± 0.0054
same,refractive index,"[2]; 308.15 K, x2 = 0.3636",1.5656 ± 0.0054
same,refractive index,"[2]; 318.15 K, x2 = 0.3636",1.5627 ± 0.0054
same,refractive index,"[2]; 328.15 K, x2 = 0.3636",1.5607 ± 0.0054
same,refractive index,"[2]; 338.15 K, x2 = 0.3636",1.5578 ± 0.0054
C[P+](c1ccccc1)(c1ccccc1)c1ccccc1.[Br-] [methyltriphenylphosphonium bromide] + OCCO,electrical conductivity,"[1]; 278.1 K, x1 = 0.2",0.0371 ± 0.014 S/m
same,viscosity,"[1]; 278.1 K, x1 = 0.2",345 ± 140 mPa·s
same,electrical conductivity,"[1]; 288.15 K, x1 = 0.2",0.055 ± 0.014 S/m
same,viscosity,"[1]; 288.15 K, x1 = 0.2",186.1 ± 53 mPa·s
same,mass density,"[1]; 298.15 K, x1 = 0.2",1232.6 ± 4.2 kg/m3
same,electrical conductivity,"[1]; 298.15 K, x1 = 0.2",0.0788 ± 0.014 S/m
same,viscosity,"[1]; 298.15 K, x1 = 0.2",109.8 ± 20 mPa·s
same,mass density,"[1]; 308.15 K, x1 = 0.2",1225.6 ± 4.1 kg/m3
same,electrical conductivity,"[1]; 308.15 K, x1 = 0.2",0.109 ± 0.014 S/m
same,viscosity,"[1]; 308.15 K, x1 = 0.2",68.6 ± 8.2 mPa·s
same,mass density,"[1]; 318.15 K, x1 = 0.2",1218.5 ± 4 kg/m3
same,electrical conductivity,"[1]; 318.15 K, x1 = 0.2",0.144 ± 0.014 S/m
same,viscosity,"[1]; 318.15 K, x1 = 0.2",39.5 ± 4.4 mPa·s
same,mass density,"[1]; 328.15 K, x1 = 0.2",1211.4 ± 3.9 kg/m3
same,electrical conductivity,"[1]; 328.15 K, x1 = 0.2",0.188 ± 0.014 S/m
same,viscosity,"[1]; 328.15 K, x1 = 0.2",19.7 ± 2.2 mPa·s
same,mass density,"[1]; 338.15 K, x1 = 0.2",1204.3 ± 3.8 kg/m3
same,electrical conductivity,"[1]; 338.15 K, x1 = 0.2",0.234 ± 0.014 S/m
same,viscosity,"[1]; 338.15 K, x1 = 0.2",5.4 ± 0.6 mPa·s
same,mass density,"[1]; 348.15 K, x1 = 0.2",1197.2 ± 3.7 kg/m3
same,electrical conductivity,"[1]; 348.15 K, x1 = 0.2",0.285 ± 0.014 S/m
same,viscosity,"[1]; 348.15 K, x1 = 0.2",1.8 ± 0.2 mPa·s
same,mass density,"[1]; 358.15 K, x1 = 0.2",1190 ± 3.7 kg/m3
same,electrical conductivity,"[1]; 358.15 K, x1 = 0.2",0.338 ± 0.014 S/m
same,electrical conductivity,"[1]; 368.15 K, x1 = 0.2",0.382 ± 0.014 S/m
same,refractive index,"[2]; 288.15 K, x2 = 0.2",1.5622 ± 0.0054
same,refractive index,"[2]; 308.15 K, x2 = 0.2",1.5542 ± 0.0054
same,refractive index,"[2]; 328.15 K, x2 = 0.2",1.5483 ± 0.0054
same,refractive index,"[2]; 338.15 K, x2 = 0.2",1.5446 ± 0.0054
[Cl-].c1ccc(C[P+](c2ccccc2)(c2ccccc2)c2ccccc2)cc1 [benzyltriphenylphosphonium chloride] + OCCO,electrical conductivity,"[1]; 328.15 K, x1 = 0.25",0.0485 ± 0.014 S/m
same,viscosity,"[1]; 328.15 K, x1 = 0.25",201.9 mPa·s
same,electrical conductivity,"[1]; 338.15 K, x1 = 0.25",0.0199 ± 0.014 S/m
same,viscosity,"[1]; 338.15 K, x1 = 0.25",85.5 ± 20 mPa·s
same,electrical conductivity,"[1]; 348.15 K, x1 = 0.25",0.00164 S/m
same,viscosity,"[1]; 348.15 K, x1 = 0.25",59.3 ± 7.2 mPa·s
same,electrical conductivity,"[1]; 358.15 K, x1 = 0.25",0.00148 S/m
same,viscosity,"[1]; 358.15 K, x1 = 0.25",50.5 ± 5.1 mPa·s
same,electrical conductivity,"[1]; 368.15 K, x1 = 0.25",0.00136 S/m
same,viscosity,"[1]; 368.15 K, x1 = 0.25",35.9 ± 4.9 mPa·s
same,refractive index,"[2]; 328.15 K, x2 = 0.25",1.5258 ± 0.0054
same,refractive index,"[2]; 338.15 K, x2 = 0.25",1.5309 ± 0.0054
"NC(=O)C(F)(F)F [2,2,2-trifluoroacetamide] + C[P+](c1ccccc1)(c1ccccc1)c1ccccc1.[Br-]",electrical conductivity,"[1]; 278.1 K, x2 = 0.111",0.0134 ± 0.014 S/m
same,viscosity,"[1]; 278.1 K, x2 = 0.111",657.7 mPa·s
same,electrical conductivity,"[1]; 288.15 K, x2 = 0.111",0.0351 ± 0.014 S/m
same,viscosity,"[1]; 288.15 K, x2 = 0.111",405.9 mPa·s
same,mass density,"[1]; 298.15 K, x2 = 0.111",1394.7 ± 6.3 kg/m3
same,electrical conductivity,"[1]; 298.15 K, x2 = 0.111",0.0848 ± 0.014 S/m
same,viscosity,"[1]; 298.15 K, x2 = 0.111",136.5 ± 60 mPa·s
same,mass density,"[1]; 308.15 K, x2 = 0.111",1383.7 ± 6.2 kg/m3
same,electrical conductivity,"[1]; 308.15 K, x2 = 0.111",0.182 ± 0.014 S/m
same,viscosity,"[1]; 308.15 K, x2 = 0.111",71.3 ± 12 mPa·s
same,mass density,"[1]; 318.15 K, x2 = 0.111",1372.7 ± 6 kg/m3
same,electrical conductivity,"[1]; 318.15 K, x2 = 0.111",0.282 ± 0.014 S/m
same,viscosity,"[1]; 318.15 K, x2 = 0.111",39 ± 5 mPa·s
same,mass density,"[1]; 328.15 K, x2 = 0.111",1361.6 ± 5.9 kg/m3
same,electrical conductivity,"[1]; 328.15 K, x2 = 0.111",0.349 ± 0.014 S/m
same,viscosity,"[1]; 328.15 K, x2 = 0.111",24.1 ± 3.3 mPa·s
same,mass density,"[1]; 338.15 K, x2 = 0.111",1350.4 ± 5.7 kg/m3
same,electrical conductivity,"[1]; 338.15 K, x2 = 0.111",0.418 ± 0.014 S/m
same,viscosity,"[1]; 338.15 K, x2 = 0.111",16.6 ± 2.3 mPa·s
same,mass density,"[1]; 348.15 K, x2 = 0.111",1339.3 ± 5.6 kg/m3
same,electrical conductivity,"[1]; 348.15 K, x2 = 0.111",0.482 ± 0.014 S/m
same,viscosity,"[1]; 348.15 K, x2 = 0.111",11.1 ± 1.6 mPa·s
same,mass density,"[1]; 358.15 K, x2 = 0.111",1328.2 ± 5.5 kg/m3
same,electrical conductivity,"[1]; 358.15 K, x2 = 0.111",0.55 ± 0.02 S/m
same,viscosity,"[1]; 358.15 K, x2 = 0.111",0.9 mPa·s
same,electrical conductivity,"[1]; 368.15 K, x2 = 0.111",0.609 ± 0.014 S/m
same,refractive index,"[2]; 288.15 K, x1 = 0.111",1.4913 ± 0.0054
same,refractive index,"[2]; 298.15 K, x1 = 0.111",1.4849 ± 0.0054
same,refractive index,"[2]; 308.15 K, x1 = 0.111",1.4824 ± 0.0054
same,refractive index,"[2]; 318.15 K, x1 = 0.111",1.4782 ± 0.0054
same,refractive index,"[2]; 328.15 K, x1 = 0.111",1.4745 ± 0.0054
same,refractive index,"[2]; 338.15 K, x1 = 0.111",1.4737 ± 0.0054
